Results on 17 molecules are retold here after patent publication US20260116868A1 (Arcus Biosciences, Inc., priority 2023, published 2026).

The target of the experiment is T1, Cbl-b (Homo sapiens, UniProt Q13191).
T1 construct: biotin (biotinylated protein)
Nature of the experiment: Cbl-b probe displacement HTRF binding assay. The settings on record: 0.4 nM Cbl-b, 150 nM BODIPY probe. How it is done:
The affinity with which compounds of the present disclosure bind to Cbl-b was assessed using probe displacement homologous time resolved fluorescence (HTRF) assays. The assays used a BODIPY™ conjugated probe (Example 54 from WO 2020264398) and biotinylated Cbl-b. The assays were performed in assay buffer consisting of 20 mM Hepes, 150 mM NaCl, 0.01% Triton X-100, 0.5 mM TCEP, 0.01% BSA. On the day of the assay, a 20 point, 1:2 master serial dilution of each compound was prepared in DMSO to span a final concentration range of […] to 0 nM. Two hundred nanoliters of diluted compound was added to each well of a 384-well plate. Fifteen microliters of biotinylated- Cbl-b resuspended in assay buffer were added to each well and the plate incubated for 60 minutes at room temperature prior to addition of 5 μL of BODIPY™ probe in assay buffer. Final assay conditions included 0.4 nM of Cbl-b and 150 nM of BODIPY™ probe. After a further 15 minutes of incubation at room temperature, 5 μl of Streptavidin-Terbium cryptate reagent at 5-fold final concentration was added to each well of the 384-well plate. Binding of a probe to Cbl-b results in an increase of HTRF signal. HTRF signal was measured by Envision plate reader, while competition of a compound of the present disclosure with probe results in a decrease of signal. Percentage maximum activity in each test well was calculated based on DMSO (maximum activity, 0% displacement) and no protein control wells (baseline activity, 100% displacement). Binding affinity was determined from a dose response curve fitted using a standard four parameter fit equation. See Table 7 for data for compounds (Cbl-b Binding (IC50)).

T1 sequence (Q13191 whole entry, species assumed): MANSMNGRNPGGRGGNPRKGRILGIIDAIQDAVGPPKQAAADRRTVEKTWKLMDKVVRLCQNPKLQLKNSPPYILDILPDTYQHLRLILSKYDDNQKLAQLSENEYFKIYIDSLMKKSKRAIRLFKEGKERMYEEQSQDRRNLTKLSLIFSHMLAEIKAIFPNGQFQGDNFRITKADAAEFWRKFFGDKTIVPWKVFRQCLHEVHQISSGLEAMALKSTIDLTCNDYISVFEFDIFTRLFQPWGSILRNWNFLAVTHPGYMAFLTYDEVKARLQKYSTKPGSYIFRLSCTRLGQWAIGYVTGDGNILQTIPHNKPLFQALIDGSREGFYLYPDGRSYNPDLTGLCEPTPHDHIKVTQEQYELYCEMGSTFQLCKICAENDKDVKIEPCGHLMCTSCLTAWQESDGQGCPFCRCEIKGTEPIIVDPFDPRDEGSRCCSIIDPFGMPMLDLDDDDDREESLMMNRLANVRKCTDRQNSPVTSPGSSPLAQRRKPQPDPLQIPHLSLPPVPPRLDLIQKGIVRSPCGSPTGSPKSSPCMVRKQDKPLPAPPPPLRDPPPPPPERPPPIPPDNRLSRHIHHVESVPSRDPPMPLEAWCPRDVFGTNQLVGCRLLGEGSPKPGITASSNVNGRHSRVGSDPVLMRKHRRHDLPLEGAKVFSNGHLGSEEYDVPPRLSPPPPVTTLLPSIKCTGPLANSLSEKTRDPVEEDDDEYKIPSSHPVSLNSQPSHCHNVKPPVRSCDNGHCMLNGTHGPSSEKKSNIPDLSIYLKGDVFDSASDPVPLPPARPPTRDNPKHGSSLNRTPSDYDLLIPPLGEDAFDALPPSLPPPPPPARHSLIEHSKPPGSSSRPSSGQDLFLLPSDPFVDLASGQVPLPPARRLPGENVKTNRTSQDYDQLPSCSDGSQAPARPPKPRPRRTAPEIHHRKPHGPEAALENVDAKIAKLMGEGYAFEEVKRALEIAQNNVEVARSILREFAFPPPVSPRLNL

The term IC50 denotes the midpoint of a concentration-inhibition curve. Low values mean greater potency, high ones weaker potency. `CCOc1cc(-c2c(F)cc(C#N)cc2C(=O)N2CC(F)(F)C2)cc(NC(=O)c2cc(CNC[C@H](C)OC)cn(C)c2=O)n1` [Example 120, N-[4-[4-cyano-2-(3,3-difluoroazetidine-1-carbonyl)-6-fluorophenyl]-6-ethoxypyridin-2-yl]-5-[[[(2S)-2-methoxypropyl]amino]methyl]-1-methyl-2-oxopyridine-3-carboxamide]: the IC50 was less than 100 nM.

With `CCOc1cc(-c2ccc(Cl)cc2C(=O)N2CC(F)(F)C2)cc(NC(=O)c2cc(CNCC3(F)CCC3)cn(C3CC3)c2=O)n1` [Example 121, N-(4-{4-chloro-2-[(3,3-difluoro-1-azetidinyl)carbonyl]phenyl}-6-ethoxy-2-pyridyl)-1-cyclopropyl-5-({[(1-fluorocyclobutyl)methyl]amino}methyl)-2-oxo-1,2-dihydronicotinamide], the IC50 was less than 100 nM. Regarding `CCOc1cc(-c2ccc(Cl)cc2C(=O)N2CC(F)(F)C2)cc(NC(=O)c2cc(CN[C@@H](C)C3CCC3)cn(C3CC3)c2=O)n1` [Example 122, N-(4-{4-chloro-2-[(3,3-difluoro-1-azetidinyl)carbonyl]phenyl}-6-ethoxy-2-pyridyl)-5-{[(S)-1-cyclobutylethylamino]methyl}-1-cyclopropyl-2-oxo-1,2-dihydronicotinamide], the IC50 is less than 100 nM. In the case of `CCOc1cc(-c2ccc(Cl)cc2C(=O)N2CC(F)(F)C2)cc(NC(=O)c2cc(CNC[C@H](C)OC)cn(C3CC3)c2=O)n1` [Example 123, N-(4-{4-chloro-2-[(3,3-difluoro-1-azetidinyl)carbonyl]phenyl}-6-ethoxy-2-pyridyl)-1-cyclopropyl-5-{[(S)-2-methoxypropylamino]methyl}-2-oxo-1,2-dihydronicotinamide] it was less than 100 nM. In the case of `CCOc1cc(-c2ccc(Cl)cc2C(=O)N2CC(F)(F)C2)cc(NC(=O)c2cc(CN[C@@H](C)C3CC3)cn(C3CC3)c2=O)n1` [Example 124] it was less than 100 nM; in that of `CO[C@@H](C)[C@H](C)NCc1cc(C(=O)Nc2cc(-c3c(F)cc(C#N)cc3C(=O)N3CC(F)(F)C3)cc(C3CC3)n2)c(=O)n(C2CC2)c1` [Example 125, N-(4-{4-cyano-2-[(3,3-difluoro-1-azetidinyl)carbonyl]-6-fluorophenyl}-6-cyclopropyl-2-pyridyl)-1-cyclopropyl-5-{[(1S,2S)-2-methoxy-1-methylpropylamino]methyl}-2-oxo-1,2-dihydronicotinamide], less than 100 nM. In the case of `CC(C)Oc1cc(-c2c(F)cc(C#N)cc2C(=O)N2CC(F)(F)C2)cc(NC(=O)c2cc(CN[C@@H](C)C3CCC3)cn(C3CC3)c2=O)n1` [Example 126] it was less than 100 nM. In turn, `CO[C@@H](C)CNCc1cc(C(=O)Nc2cc(-c3c(F)cc(C#N)cc3C(=O)N3CC(F)(F)C3)cc(OC(C)C)n2)c(=O)n(C2CC2)c1` [Example 127, N-(4-{4-cyano-2-[(3,3-difluoro-1-azetidinyl)carbonyl]-6-fluorophenyl}-6-isopropoxy-2-pyridyl)-1-cyclopropyl-5-{[(S)-2-methoxypropylamino]methyl}-2-oxo-1,2-dihydronicotinamide] registered a half-inhibitory concentration (IC50) of less than 100 nM. Molecule `CC(C)CNCc1cc(C(=O)Nc2cc(-c3c(F)cc(C#N)cc3C(=O)N3CC(F)(F)C3)cc(OC(C)C)n2)c(=O)n(C2CC2)c1` [Example 128, N-(4-{4-cyano-2-[(3,3-difluoro-1-azetidinyl)carbonyl]-6-fluorophenyl}-6-isopropoxy-2-pyridyl)-1-cyclopropyl-5-[(isobutylamino)methyl]-2-oxo-1,2-dihydronicotinamide] gave an IC50 of less than 100 nM.

`CC(C)CNCc1cc(C(=O)Nc2cc(-c3ccc(C#N)cc3C(=O)N3CC(F)(F)C3)cc(OCC(F)F)n2)c(=O)n(C2CC2)c1` [Example 129, N-(4-{4-cyano-2-[(3,3-difluoro-1-azetidinyl)carbonyl]phenyl}-6-(2,2-difluoroethoxy)-2-pyridyl)-1-cyclopropyl-5-[(isobutylamino)methyl]-2-oxo-1,2-dihydronicotinamide] gave an IC50 of less than 100 nM.

`C[C@H](NCc1cc(C(=O)Nc2cc(-c3ccc(C#N)cc3C(=O)N3CC(F)(F)C3)cc(OCC(F)F)n2)c(=O)n(C2CC2)c1)C1CCC1` [Example 130, N-(4-{4-cyano-2-[(3,3-difluoro-1-azetidinyl)carbonyl]phenyl}-6-(2,2-difluoroethoxy)-2-pyridyl)-5-{[(S)-1-cyclobutylethylamino]methyl}-1-cyclopropyl-2-oxo-1,2-dihydronicotinamide] yielded an IC50 of less than 100 nM. For `CO[C@@H](C)CNCc1cc(C(=O)Nc2cc(-c3ccc(C#N)cc3C(=O)N3CC(F)(F)C3)cc(OCC(F)F)n2)c(=O)n(C2CC2)c1` [Example 131, N-(4-{4-cyano-2-[(3,3-difluoro-1-azetidinyl)carbonyl]phenyl}-6-(2,2-difluoroethoxy)-2-pyridyl)-1-cyclopropyl-5-{[(S)-2-methoxypropylamino]methyl}-2-oxo-1,2-dihydronicotinamide], the IC50 is less than 100 nM.

In turn, `N#Cc1ccc(-c2cc(NC(=O)c3cc(CNC[C@@H]4CCCO4)cn(C4CC4)c3=O)nc(OCC(F)F)c2)c(C(=O)N2CC(F)(F)C2)c1` [Example 132, N-(4-{4-cyano-2-[(3,3-difluoro-1-azetidinyl)carbonyl]phenyl}-6-(2,2-difluoroethoxy)-2-pyridyl)-1-cyclopropyl-2-oxo-5-[({[(S)-perhydro-2-furyl]methyl}amino)methyl]-1,2-dihydronicotinamide] came in with an IC50 of less than 100 nM. In the case of `O=C(Nc1cc(-c2ccc(Cl)cc2C(=O)N2CC(F)(F)C2)cc(C2CC2)n1)c1cc(CNC[C@@H]2COCCO2)cn(C2CC2)c1=O` [Example 133, N-(4-{4-chloro-2-[(3,3-difluoro-1-azetidinyl)carbonyl]phenyl}-6-cyclopropyl-2-pyridyl)-1-cyclopropyl-5-[({[(R)-1,4-dioxan-2-yl]methyl}amino)methyl]-2-oxo-1,2-dihydronicotinamide] it was less than 100 nM; in that of `CC(C)CNCc1cc(C(=O)Nc2cc(-c3ccc(Cl)cc3C(=O)N3CC(F)(F)C3)cc(C3CC3)n2)c(=O)n(C2CC2)c1` [Example 134, N-(4-{4-chloro-2-[(3,3-difluoro-1-azetidinyl)carbonyl]phenyl}-6-cyclopropyl-2-pyridyl)-1-cyclopropyl-5-[(isobutylamino)methyl]-2-oxo-1,2-dihydronicotinamide], less than 100 nM; in that of `C[C@H](NCc1cc(C(=O)Nc2cc(-c3ccc(Cl)cc3C(=O)N3CC(F)(F)C3)cc(C3CC3)n2)c(=O)n(C2CC2)c1)C1CC1` [Example 135, N-(4-{4-chloro-2-[(3,3-difluoro-1-azetidinyl)carbonyl]phenyl}-6-cyclopropyl-2-pyridyl)-1-cyclopropyl-5-{[(S)-1-cyclopropylethylamino]methyl}-2-oxo-1,2-dihydronicotinamide], less than 100 nM.

`O=C(Nc1cc(-c2ccc(Cl)cc2C(=O)N2CC(F)(F)C2)cc(C2CC2)n1)c1cc(CNCCCF)cn(C2CC2)c1=O` [Example 136, N-(4-{4-chloro-2-[(3,3-difluoro-1-azetidinyl)carbonyl]phenyl}-6-cyclopropyl-2-pyridyl)-1-cyclopropyl-5-[(3-fluoropropylamino)methyl]-2-oxo-1,2-dihydronicotinamide] returned an IC50 of less than 100 nM.
